Tested on in the first data set: not listed separately
The data set can be described thus: Acute intravenous toxicity (LD50, method according to MILLER and TAINTER). The conditions noted are these: mouse, in vivo, Swiss mice, read-out: LD50 /24hrs/kg of the animal.
`COC1CNCc2ccsc21` (centres unmarked) [Derivative 1, 7-Methoxy-4,5,6,7-tetrahydro-thieno[3,2-c]-pyridine]: the LD50 at 24 h was 262 mg/kg.

Turning to `CCOC1CNCc2ccsc21` (centres unmarked) [Derivative 2, 7-Ethoxy-4,5,6,7-tetrahydro-thieno[3,2-c]-pyridine], the LD50 at 24 h came to 145 mg/kg.

Take `CC(C)COC1CNCc2ccsc21` (centres unmarked) [Derivative 3, 7-Isobutoxy-4,5,6,7-tetrahydro-thieno[3,2-c]-pyridine]: the LD50 at 24 h was determined as 180 mg/kg.

`c1ccc(COC2CNCc3ccsc32)cc1` (centres unmarked) [Derivative 4, 7-Benzyloxy-4,5,6,7-tetrahydro-thieno[3,2-c]-pyridine]: the LD50 at 24 h amounted to 95 mg/kg.

Regarding `COC1(C)CNCc2ccsc21` (centres unmarked) [Derivative 5, 7-Methoxy-7-methyl-4,5,6,7-tetrahydro-thieno[3,2-c]-pyridine], the LD50 at 24 h turned out to be 138 mg/kg.

The subject of another data set is mechanical stimulation (pressure forceps at the base of the tail). The data set is described as follows: Antalgic action, mechanical stimulation method according to Haffner. The conditions noted are these: 0.5 h; mouse, 100 mg/kg oral, after 30 min.; read-out: mean percent antalgia after 30 min. Format: in vivo. Here is the method: This method comprises placing a pressure forceps at the base of the tail of a mouse and recording the number of bites self-inflicted by the animal in its endeavour to remove the forceps. The decrease of the number of bites prior to and subsequently to oral administration of the test compound at a dosage of 100 mg/kg provides a measure of the antalgic activity of the derivatives of this invention.
Take `COC1CNCc2ccsc21` (centres unmarked) [Derivative 1, 7-Methoxy-4,5,6,7-tetrahydro-thieno[3,2-c]-pyridine]: the inhibition in vivo at 100 mg/kg came out at 75%.

Regarding `CCOC1CNCc2ccsc21` (centres unmarked) [Derivative 2, 7-Ethoxy-4,5,6,7-tetrahydro-thieno[3,2-c]-pyridine], the inhibition in vivo at 100 mg/kg stood at 71%.

As for `CC(C)COC1CNCc2ccsc21` (centres unmarked) [Derivative 3, 7-Isobutoxy-4,5,6,7-tetrahydro-thieno[3,2-c]-pyridine], the inhibition in vivo at 100 mg/kg was 68%.

On to `c1ccc(COC2CNCc3ccsc32)cc1` (centres unmarked) [Derivative 4, 7-Benzyloxy-4,5,6,7-tetrahydro-thieno[3,2-c]-pyridine], for which the inhibition in vivo at 100 mg/kg turned out to be 75%.

In the case of `COC1(C)CNCc2ccsc21` (centres unmarked) [Derivative 5, 7-Methoxy-7-methyl-4,5,6,7-tetrahydro-thieno[3,2-c]-pyridine], the inhibition in vivo at 100 mg/kg turned out to be 67%.

Staying with this data set, now noted: mouse, 100 mg/kg oral, after 1 hr; read-out: mean percent antalgia after 1 hr.
With `COC1CNCc2ccsc21` (centres unmarked) [Derivative 1, 7-Methoxy-4,5,6,7-tetrahydro-thieno[3,2-c]-pyridine], the inhibition in vivo at 100 mg/kg was determined as 63%.

For `CCOC1CNCc2ccsc21` (centres unmarked) [Derivative 2, 7-Ethoxy-4,5,6,7-tetrahydro-thieno[3,2-c]-pyridine], the inhibition in vivo at 100 mg/kg was 66%.

Take `CC(C)COC1CNCc2ccsc21` (centres unmarked) [Derivative 3, 7-Isobutoxy-4,5,6,7-tetrahydro-thieno[3,2-c]-pyridine]: the inhibition in vivo at 100 mg/kg was found to be 60%.

Regarding `c1ccc(COC2CNCc3ccsc32)cc1` (centres unmarked) [Derivative 4, 7-Benzyloxy-4,5,6,7-tetrahydro-thieno[3,2-c]-pyridine], the inhibition in vivo at 100 mg/kg is 69%.

Turning to `COC1(C)CNCc2ccsc21` (centres unmarked) [Derivative 5, 7-Methoxy-7-methyl-4,5,6,7-tetrahydro-thieno[3,2-c]-pyridine], the inhibition in vivo at 100 mg/kg was 61%.

The data set is the same for the next values; noted with them: mouse, 100 mg/kg oral, after 2 hrs; read-out: mean percent antalgia after 2 hrs.
`COC1CNCc2ccsc21` (centres unmarked) [Derivative 1, 7-Methoxy-4,5,6,7-tetrahydro-thieno[3,2-c]-pyridine]: the inhibition in vivo at 100 mg/kg was 59%.

Take `CCOC1CNCc2ccsc21` (centres unmarked) [Derivative 2, 7-Ethoxy-4,5,6,7-tetrahydro-thieno[3,2-c]-pyridine]: the inhibition in vivo at 100 mg/kg is 62%.

Regarding `CC(C)COC1CNCc2ccsc21` (centres unmarked) [Derivative 3, 7-Isobutoxy-4,5,6,7-tetrahydro-thieno[3,2-c]-pyridine], the inhibition in vivo at 100 mg/kg was 55%.

Regarding `c1ccc(COC2CNCc3ccsc32)cc1` (centres unmarked) [Derivative 4, 7-Benzyloxy-4,5,6,7-tetrahydro-thieno[3,2-c]-pyridine], the inhibition in vivo at 100 mg/kg is 66%.

For the molecule `COC1(C)CNCc2ccsc21` (centres unmarked) [Derivative 5, 7-Methoxy-7-methyl-4,5,6,7-tetrahydro-thieno[3,2-c]-pyridine], the inhibition in vivo at 100 mg/kg is 55%.

Still in this data set, the particulars now being: mouse, 100 mg/kg oral, after 3 hrs; read-out: mean percent antalgia after 3 hrs.
Regarding `COC1CNCc2ccsc21` (centres unmarked) [Derivative 1, 7-Methoxy-4,5,6,7-tetrahydro-thieno[3,2-c]-pyridine], the inhibition in vivo at 100 mg/kg was 51%.

Consider `CCOC1CNCc2ccsc21` (centres unmarked) [Derivative 2, 7-Ethoxy-4,5,6,7-tetrahydro-thieno[3,2-c]-pyridine], for which the inhibition in vivo at 100 mg/kg was 59%.

As to `CC(C)COC1CNCc2ccsc21` (centres unmarked) [Derivative 3, 7-Isobutoxy-4,5,6,7-tetrahydro-thieno[3,2-c]-pyridine], the inhibition in vivo at 100 mg/kg came to 48%.

Take `c1ccc(COC2CNCc3ccsc32)cc1` (centres unmarked) [Derivative 4, 7-Benzyloxy-4,5,6,7-tetrahydro-thieno[3,2-c]-pyridine]: the inhibition in vivo at 100 mg/kg came to 57%.

As to `COC1(C)CNCc2ccsc21` (centres unmarked) [Derivative 5, 7-Methoxy-7-methyl-4,5,6,7-tetrahydro-thieno[3,2-c]-pyridine], the inhibition in vivo at 100 mg/kg amounted to 46%.

Another data set concerns carrageenin-induced edema. The data set can be described thus: Localized carrageenin-induced edema method (anti-inflammatory action). Format: in vivo. The conditions noted are these: Rattus norvegicus, po; rats, 100 mg/kg orally (1 hour prior, simultaneously, 1 hour and 2.5 hours after), after 1 hour; read-out: Percent anti-inflammatory activity after 1 hour. On the procedure: a. Localized carrageenin-induced edema method.
0.1 ml of a 1% carrageenin solution is injected at time 0 in the metatarsal flexor muscles of the right hind limb of rats. The animals of the treated group are administered orally, additionally, 100 mg/kg of the test derivative, respectively 1 hour prior to and then simultaneously with the phlogogenic agent, and then 1 hour and 2.5 hours thereafter. The determinations effected with a ROCH micrometer at times 0, 1 hour, 2 hrs, 3 hrs and 5 hrs after carrageenin administration make it possible to determine, as a function of time, the percent anti-inflammatory activity.
On the technique in general: Carrageenan injected into the paw causes an acute inflammation.
As for `COC1CNCc2ccsc21` (centres unmarked) [Derivative 1, 7-Methoxy-4,5,6,7-tetrahydro-thieno[3,2-c]-pyridine], the inhibition in vivo at 100 mg/kg amounted to 35%.

With `CCOC1CNCc2ccsc21` (centres unmarked) [Derivative 2, 7-Ethoxy-4,5,6,7-tetrahydro-thieno[3,2-c]-pyridine], the inhibition in vivo at 100 mg/kg was 36%.

`CC(C)COC1CNCc2ccsc21` (centres unmarked) [Derivative 3, 7-Isobutoxy-4,5,6,7-tetrahydro-thieno[3,2-c]-pyridine]: the inhibition in vivo at 100 mg/kg was 39%.

Consider `c1ccc(COC2CNCc3ccsc32)cc1` (centres unmarked) [Derivative 4, 7-Benzyloxy-4,5,6,7-tetrahydro-thieno[3,2-c]-pyridine], for which the inhibition in vivo at 100 mg/kg turned out to be 42%.

As for `COC1(C)CNCc2ccsc21` (centres unmarked) [Derivative 5, 7-Methoxy-7-methyl-4,5,6,7-tetrahydro-thieno[3,2-c]-pyridine], the inhibition in vivo at 100 mg/kg turned out to be 39%.

Staying with this data set, now noted: Rattus norvegicus, po; rats, 100 mg/kg orally (1 hour prior, simultaneously, 1 hour and 2.5 hours after), after 2 hours; read-out: Percent anti-inflammatory activity after 2 hours.
For `COC1CNCc2ccsc21` (centres unmarked) [Derivative 1, 7-Methoxy-4,5,6,7-tetrahydro-thieno[3,2-c]-pyridine], the inhibition in vivo at 100 mg/kg came to 41%.

Take `CCOC1CNCc2ccsc21` (centres unmarked) [Derivative 2, 7-Ethoxy-4,5,6,7-tetrahydro-thieno[3,2-c]-pyridine]: the inhibition in vivo at 100 mg/kg amounted to 44%.

Take `CC(C)COC1CNCc2ccsc21` (centres unmarked) [Derivative 3, 7-Isobutoxy-4,5,6,7-tetrahydro-thieno[3,2-c]-pyridine]: the inhibition in vivo at 100 mg/kg was 48%.

For the molecule `c1ccc(COC2CNCc3ccsc32)cc1` (centres unmarked) [Derivative 4, 7-Benzyloxy-4,5,6,7-tetrahydro-thieno[3,2-c]-pyridine], the inhibition in vivo at 100 mg/kg came to 50%.

With `COC1(C)CNCc2ccsc21` (centres unmarked) [Derivative 5, 7-Methoxy-7-methyl-4,5,6,7-tetrahydro-thieno[3,2-c]-pyridine], the inhibition in vivo at 100 mg/kg worked out at 49%.

Still in this data set, the particulars now being: Rattus norvegicus, po; rats, 100 mg/kg orally (1 hour prior, simultaneously, 1 hour and 2.5 hours after), after 5 hours; read-out: Percent anti-inflammatory activity after 5 hours.
For `COC1CNCc2ccsc21` (centres unmarked) [Derivative 1, 7-Methoxy-4,5,6,7-tetrahydro-thieno[3,2-c]-pyridine], the inhibition in vivo at 100 mg/kg was 50%.

As to `CCOC1CNCc2ccsc21` (centres unmarked) [Derivative 2, 7-Ethoxy-4,5,6,7-tetrahydro-thieno[3,2-c]-pyridine], the inhibition in vivo at 100 mg/kg came out at 52%.

Regarding `CC(C)COC1CNCc2ccsc21` (centres unmarked) [Derivative 3, 7-Isobutoxy-4,5,6,7-tetrahydro-thieno[3,2-c]-pyridine], the inhibition in vivo at 100 mg/kg was determined as 58%.

For the molecule `c1ccc(COC2CNCc3ccsc32)cc1` (centres unmarked) [Derivative 4, 7-Benzyloxy-4,5,6,7-tetrahydro-thieno[3,2-c]-pyridine], the inhibition in vivo at 100 mg/kg was 60%.

For `COC1(C)CNCc2ccsc21` (centres unmarked) [Derivative 5, 7-Methoxy-7-methyl-4,5,6,7-tetrahydro-thieno[3,2-c]-pyridine], the inhibition in vivo at 100 mg/kg turned out to be 57%.

A further data set deals with Ovalbumin-induced systemic edema. The data set can be described thus: Ovalbumin-induced systemic edema method (anti-inflammatory action). The format is in vivo. The conditions noted are these: Rattus norvegicus, po; rats, 100 mg/kg orally (1 hour prior and simultaneously), with respect to control group, after 2 hrs; read-out: Percent decrease of the edema reaction after 2 hrs. On the procedure:
b. Ovalbumin-induced systemic edema method
Rats are administered a simultaneous intraperitoneal injection of 1 ml ovalbumin and 0.5 ml of a 1% Evans Blue solution. The animals of the treated group are additionally administered orally 100 mg/kg of the test derivative, one hour prior to ovalbumin administration and then simultaneously with said ovalbumin administration. The intensity of the phenomenon thus induced is rated according to a scale from 1 to 5, according to the progress of the inflammatory syndrome. The measurements are effected after 2 hours and after 3 hours. Thus are determined the mean intensity of the edema and the percent decrease of the edema reaction with respect to the control group.
Take `COC1CNCc2ccsc21` (centres unmarked) [Derivative 1, 7-Methoxy-4,5,6,7-tetrahydro-thieno[3,2-c]-pyridine]: the inhibition in vivo at 100 mg/kg was determined as 51%.

Consider `CCOC1CNCc2ccsc21` (centres unmarked) [Derivative 2, 7-Ethoxy-4,5,6,7-tetrahydro-thieno[3,2-c]-pyridine], for which the inhibition in vivo at 100 mg/kg turned out to be 48%.

In the case of `CC(C)COC1CNCc2ccsc21` (centres unmarked) [Derivative 3, 7-Isobutoxy-4,5,6,7-tetrahydro-thieno[3,2-c]-pyridine], the inhibition in vivo at 100 mg/kg stood at 51%.

Turning to `c1ccc(COC2CNCc3ccsc32)cc1` (centres unmarked) [Derivative 4, 7-Benzyloxy-4,5,6,7-tetrahydro-thieno[3,2-c]-pyridine], the inhibition in vivo at 100 mg/kg stood at 53%.

Consider `COC1(C)CNCc2ccsc21` (centres unmarked) [Derivative 5, 7-Methoxy-7-methyl-4,5,6,7-tetrahydro-thieno[3,2-c]-pyridine], for which the inhibition in vivo at 100 mg/kg is 49%.

Still in this data set, the particulars now being: Rattus norvegicus, po; rats, 100 mg/kg orally (1 hour prior and simultaneously), with respect to control group, after 3 hrs; read-out: Percent decrease of the edema reaction after 3 hrs.
Take `COC1CNCc2ccsc21` (centres unmarked) [Derivative 1, 7-Methoxy-4,5,6,7-tetrahydro-thieno[3,2-c]-pyridine]: the inhibition in vivo at 100 mg/kg came out at 60%.

With `CCOC1CNCc2ccsc21` (centres unmarked) [Derivative 2, 7-Ethoxy-4,5,6,7-tetrahydro-thieno[3,2-c]-pyridine], the inhibition in vivo at 100 mg/kg stood at 59%.

As to `CC(C)COC1CNCc2ccsc21` (centres unmarked) [Derivative 3, 7-Isobutoxy-4,5,6,7-tetrahydro-thieno[3,2-c]-pyridine], the inhibition in vivo at 100 mg/kg is 63%.

As for `c1ccc(COC2CNCc3ccsc32)cc1` (centres unmarked) [Derivative 4, 7-Benzyloxy-4,5,6,7-tetrahydro-thieno[3,2-c]-pyridine], the inhibition in vivo at 100 mg/kg came out at 64%.

Regarding `COC1(C)CNCc2ccsc21` (centres unmarked) [Derivative 5, 7-Methoxy-7-methyl-4,5,6,7-tetrahydro-thieno[3,2-c]-pyridine], the inhibition in vivo at 100 mg/kg is 60%.
